Measured values published in publication PMC6265301, “Engineering Saccharomyces cerevisiae for co-utilization of D-galacturonic acid and D-glucose from citrus peel waste” (Nature Communications, 2018).

Key:
GAAC = molecular target: T1, GAAC (Aspergillus niger, UniProt A8DRH7); experiment: aldolase activity in yeast lysate; type: biochemical
T1 construct: codon-optimized, expressed in S. cerevisiae BY4741, lysate
T1 sequence (A8DRH7 1-335): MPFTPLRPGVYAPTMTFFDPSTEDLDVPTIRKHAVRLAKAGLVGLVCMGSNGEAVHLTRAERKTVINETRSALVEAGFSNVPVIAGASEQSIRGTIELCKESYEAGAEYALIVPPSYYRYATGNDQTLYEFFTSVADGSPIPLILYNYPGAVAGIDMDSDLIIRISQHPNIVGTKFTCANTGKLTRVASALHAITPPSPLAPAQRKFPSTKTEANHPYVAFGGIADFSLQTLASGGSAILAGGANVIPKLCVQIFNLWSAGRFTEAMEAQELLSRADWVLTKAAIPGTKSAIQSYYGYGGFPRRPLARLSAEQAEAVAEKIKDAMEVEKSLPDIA

GAAA = molecular target: T2, GAAA (Aspergillus niger, UniProt A8DRH9); experiment: reductase activity in yeast lysate; type: biochemical
T2 construct: codon-optimized, expressed in S. cerevisiae BY4741, lysate
T2 sequence (A8DRH9 1-412): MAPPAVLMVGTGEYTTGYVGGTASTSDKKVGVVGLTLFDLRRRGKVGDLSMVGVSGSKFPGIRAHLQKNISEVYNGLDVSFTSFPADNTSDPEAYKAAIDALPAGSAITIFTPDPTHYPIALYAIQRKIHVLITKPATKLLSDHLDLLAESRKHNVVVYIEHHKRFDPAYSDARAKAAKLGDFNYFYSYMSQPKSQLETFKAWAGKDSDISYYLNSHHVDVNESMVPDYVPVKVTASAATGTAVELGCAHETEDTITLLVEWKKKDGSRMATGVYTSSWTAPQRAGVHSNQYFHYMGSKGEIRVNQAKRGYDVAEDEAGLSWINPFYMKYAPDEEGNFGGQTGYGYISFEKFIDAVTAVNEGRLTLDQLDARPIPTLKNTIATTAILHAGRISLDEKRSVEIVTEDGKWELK

GAR1 = molecular target: T3, GAR1 (Trichoderma reesei, UniProt Q3ZFI7); experiment: reductase activity in yeast lysate; type: biochemical
T3 construct: codon-optimized, expressed in S. cerevisiae BY4741, lysate
T3 sequence (Q3ZFI7 1-309): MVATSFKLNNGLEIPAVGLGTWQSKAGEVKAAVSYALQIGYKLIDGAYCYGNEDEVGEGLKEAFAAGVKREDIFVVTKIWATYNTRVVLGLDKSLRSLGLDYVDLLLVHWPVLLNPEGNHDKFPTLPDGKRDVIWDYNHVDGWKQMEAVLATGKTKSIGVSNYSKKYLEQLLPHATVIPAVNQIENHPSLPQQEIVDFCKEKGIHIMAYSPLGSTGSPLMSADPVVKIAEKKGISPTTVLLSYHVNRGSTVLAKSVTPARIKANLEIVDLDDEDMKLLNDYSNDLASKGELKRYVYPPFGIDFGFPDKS

[1] = molecular target: T4, uronate dehydrogenase (UDH) (Pseudomonas syringae group genomosp. 3, UniProt Q888H1); experiment: conversion to meso-galactaric acid by UDH-expressing yeast, HPLC; type: cell-based; settings: orange peel hydrolysate, GatA co-expressed
T4 construct: genomically integrated, expressed in S. cerevisiae with GatA
T4 sequence (Q888H1 1-275): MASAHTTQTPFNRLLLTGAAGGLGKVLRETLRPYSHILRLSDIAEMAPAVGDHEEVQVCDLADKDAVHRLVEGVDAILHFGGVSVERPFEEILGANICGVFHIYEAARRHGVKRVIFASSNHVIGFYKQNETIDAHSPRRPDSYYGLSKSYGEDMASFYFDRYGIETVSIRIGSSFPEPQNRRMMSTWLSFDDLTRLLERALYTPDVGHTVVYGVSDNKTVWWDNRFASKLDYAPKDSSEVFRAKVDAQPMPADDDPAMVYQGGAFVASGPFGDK

| SMILES | aldolase activity in yeast lysate (GAAC) | reductase activity in yeast lysate (GAAA) | reductase activity in yeast lysate (GAR1) | conversion to meso-galactaric acid by UDH-expressing yeast, HPLC [1] |
| --- | --- | --- | --- | --- |
| O=C(O)C(=O)C[C@H](O)[C@@H](O)CO [2-keto-3-deoxy-L-galactonate] | 2-keto-3-deoxy-L-galactonate aldolase from Aspergillus niger (GAAC) | – | – | – |
| O=C(O)[C@H]1OC(O)[C@H](O)[C@@H](O)[C@H]1O (stereo partly drawn) [D-galUA] | – | lower specific activities measured for GAAA compared to GAR1 in cell lysate | D-galacturonate reductase from Trichoderma reesei (GAR1) | conversion of D-galUA to meso-galactaric acid was observed in the UDH and GatA co-expression strain |
